# Reference: patent US20060069132A1, “Azolecarboxamide herbicides” (priority 2004, published 2006)
# Legend:
# redroot pigweed = assay: Test A pre-/postemergence herbicide test; type: in vivo, Amaranthus retroflexus
# Method in brief: (§1)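 Plants are held in greenhouse about ten days after treatment, then compared with untreated controls and scored 0 (no effect) to 100 (complete control). Preemergence dosing is a directed soil spray on sown sandy loam; postemergence dosing is spray to runoff at 2–10 cm height.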
# velvetleaf [1] = assay: Test A pre-/postemergence herbicide test; type: in vivo, Abutilon theophrasti
# Method in brief: as §1
# bermudagrass = assay: Test C pre-/postemergence herbicide test; type: in vivo, Cynodon dactylon; conditions: for Plant response rating (0 = no effect, 100 = complete control), Bermudagrass: 62 g ai/ha; for Plant response rating (0 = no effect, 100 = complete control), Bermudagrass / Plant response rating, Bermudagrass: preemergence; for Plant response rating, Bermudagrass: visual, 12 to 14 days; for Bermudagrass plant response rating: Preemergence, 500 g ai/ha, scale 0 to 100, 0 no effect, 100 complete control
# Method in brief: (§2)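 Greenhouse-grown plants were evaluated visually 12 to 14 days after treatment, with 100 meaning complete control and 0 no effect. Application was preemergence, or postemergence at 2 to 18 cm.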
# cocklebur = assay: Test C pre-/postemergence herbicide test; type: in vivo, Xanthium strumarium; conditions: for Plant response rating (0 = no effect, 100 = complete control), Cocklebur: 62 g ai/ha; for Plant response rating (0 = no effect, 100 = complete control), Cocklebur / Plant response rating, Cocklebur: preemergence; for Plant response rating, Cocklebur: visual, 12 to 14 days; for Cocklebur plant response rating: Preemergence, 500 g ai/ha, scale 0 to 100, 0 no effect, 100 complete control
# Method in brief: as §2
# corn = assay: Test C pre-/postemergence herbicide test; type: in vivo, Zea mays; conditions: for Plant response rating (0 = no effect, 100 = complete control), Corn: 62 g ai/ha; for Plant response rating (0 = no effect, 100 = complete control), Corn / Plant response rating, Corn: preemergence; for Plant response rating, Corn: visual, 12 to 14 days; for Corn plant response rating: Preemergence, 500 g ai/ha, scale 0 to 100, 0 no effect, 100 complete control
# Method in brief: as §2
# woolly cupgrass = assay: Test C pre-/postemergence herbicide test; type: in vivo, Eriochloa villosa; conditions: for Plant response rating (0 = no effect, 100 = complete control), Cupgrass, Woolly: 62 g ai/ha; for Plant response rating (0 = no effect, 100 = complete control), Cupgrass, Woolly / Plant response rating, Cupgrass, Woolly: preemergence; for Plant response rating, Cupgrass, Woolly: visual, 12 to 14 days; for Cupgrass, Woolly plant response rating: Preemergence, 500 g ai/ha, scale 0 to 100, 0 no effect, 100 complete control
# Method in brief: as §2
# giant foxtail = assay: Test C pre-/postemergence herbicide test; type: in vivo, Setaria faberi; conditions: for Plant response rating (0 = no effect, 100 = complete control), Foxtail, Giant: 62 g ai/ha; for Plant response rating (0 = no effect, 100 = complete control), Foxtail, Giant / Plant response rating, Foxtail, Giant: preemergence; for Plant response rating, Foxtail, Giant: visual, 12 to 14 days; for Foxtail, Giant plant response rating: Preemergence, 500 g ai/ha, scale 0 to 100, 0 no effect, 100 complete control
# Method in brief: as §2
# goosegrass = assay: Test C pre-/postemergence herbicide test; type: in vivo, Eleusine indica; conditions: for Plant response rating (0 = no effect, 100 = complete control), Goosegrass: 62 g ai/ha; for Plant response rating (0 = no effect, 100 = complete control), Goosegrass / Plant response rating, Goosegrass: preemergence; for Plant response rating, Goosegrass: 125 g ai/ha, scale 0 (no effect) to 100 (complete control), visual, 12 to 14 days; for Goosegrass plant response rating: Preemergence, 500 g ai/ha, scale 0 to 100, 0 no effect, 100 complete control
# Method in brief: as §2
# kochia = assay: Test C pre-/postemergence herbicide test; type: in vivo, Kochia scoparia; conditions: for Plant response rating (0 = no effect, 100 = complete control), Kochia: 62 g ai/ha; for Plant response rating (0 = no effect, 100 = complete control), Kochia / Plant response rating, Kochia: preemergence; for Plant response rating, Kochia: 125 g ai/ha, scale 0 (no effect) to 100 (complete control), visual, 12 to 14 days; for Kochia plant response rating: Preemergence, 500 g ai/ha, scale 0 to 100, 0 no effect, 100 complete control
# Method in brief: as §2
# morningglory = assay: Test C pre-/postemergence herbicide test; type: in vivo, Ipomoea coccinea; parameters: key to Plant response rating, Morningglory: 0 = no effect, 100 = complete control; conditions: for Plant response rating (0 = no effect, 100 = complete control), Morningglory: 62 g ai/ha; for Plant response rating (0 = no effect, 100 = complete control), Morningglory / Plant response rating, Morningglory: preemergence; for Plant response rating, Morningglory: 125 g ai/ha, scale 0 (no effect) to 100 (complete control), visual, 12 to 14 days; for Morningglory plant response rating: Preemergence, 500 g ai/ha, scale 0 to 100, 0 no effect, 100 complete control
# Method in brief: as §2
# yellow nutsedge = assay: Test C pre-/postemergence herbicide test; type: in vivo, Cyperus esculentus; conditions: for Plant response rating (0 = no effect, 100 = complete control), Nutsedge, Yellow: 62 g ai/ha; for Plant response rating (0 = no effect, 100 = complete control), Nutsedge, Yellow / Plant response rating, Nutsedge, Yellow: preemergence; for Plant response rating, Nutsedge, Yellow: 125 g ai/ha, scale 0 (no effect) to 100 (complete control), visual, 12 to 14 days; for Nutsedge, Yellow plant response rating: Preemergence, 500 g ai/ha, scale 0 to 100, 0 no effect, 100 complete control
# Method in brief: as §2
# soybean = assay: Test C pre-/postemergence herbicide test; type: in vivo, Glycine max; conditions: for Plant response rating (0 = no effect, 100 = complete control), Soybean: 62 g ai/ha; for Plant response rating (0 = no effect, 100 = complete control), Soybean / Plant response rating, Soybean: preemergence; for Plant response rating, Soybean: 125 g ai/ha, scale 0 (no effect) to 100 (complete control), visual, 12 to 14 days; for Soybean plant response rating: Preemergence, 500 g ai/ha, scale 0 to 100, 0 no effect, 100 complete control
# Method in brief: as §2
# velvetleaf [2] = assay: Test C pre-/postemergence herbicide test; type: in vivo, Abutilon theophrasti; conditions: for Plant response rating, Velvetleaf: 125 g ai/ha, scale 0 (no effect) to 100 (complete control), visual, 12 to 14 days, preemergence; for Velvetleaf plant response rating: Preemergence, 500 g ai/ha, scale 0 to 100, 0 no effect, 100 complete control
# Method in brief: as §2
# barnyardgrass = assay: Test C flooded paddy test; type: in vivo, Echinochloa crus-galli; conditions: for Plant response rating, Barnyardgrass: 500 g ai/ha, visual rating after 12 to 14 days
# Method in brief: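 Greenhouse test with a 12–14 day hold after application and visual comparison with controls. Emerged plants were 1- to 4-leaf stage (2–18 cm) when sprayed postemergence, and the paddy barnyardgrass was at 2 leaves under flooded conditions. 100 = complete control.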
# [3] = Postemergence, 500 g ai/ha, 0 to 100 scale, 0 no effect, 100 complete control
# [4] = Postemergence, 2000 g ai/ha, 0 to 100 scale, 0 no effect, 100 complete control
# [5] = Preemergence, 500 g ai/ha, visual rating, 0 to 100 scale (0 no effect, 100 complete control)
# [6] = Preemergence, 2000 g ai/ha, 0 to 100 scale, 0 no effect, 100 complete control
# [7] = Preemergence, 2000 g ai/ha, visual rating, 0 to 100 scale (0 no effect, 100 complete control)
# [8] = 125 g ai/ha, scale 0 (no effect) to 100 (complete control)
# [9] = 250 g ai/ha, scale 0 to 100 (0 no effect, 100 complete control)
# [10] = 62 g ai/ha, scale 0 to 100 (0 no effect, 100 complete control)
# [11] = 125 g ai/ha, scale of 0 to 100, 0 is no effect, 100 is complete control
# [12] = 250 g ai/ha, scale of 0 to 100, 0 is no effect, 100 is complete control
# [13] = scale 0 to 100 (0 no effect, 100 complete control)
structure (smiles),measurement,setting,value
CCCN1CCc2c(NC(=O)c3cc(C(C)(C)C)nn3CC)cccc2C1=O [Compound 65],"Plant response rating, Pigweed",redroot pigweed; [3],70
same,"Plant response rating, Pigweed",redroot pigweed; [4],70
same,Pigweed plant response rating,redroot pigweed; [5],100
same,Pigweed plant response rating,redroot pigweed; [6],100
same,"Plant response rating, Velvetleaf",velvetleaf [1]; [4],25
same,Velvetleaf plant response rating,velvetleaf [1]; [5],10
same,Velvetleaf plant response rating,velvetleaf [1]; [7],30
same,"Plant response rating (0 = no effect, 100 = complete control), Bermudagrass",bermudagrass,40
same,"Plant response rating, Bermudagrass",bermudagrass; [8],85
same,"Plant response rating, Bermudagrass",bermudagrass; [9],95
same,Bermudagrass plant response rating,bermudagrass,95
same,"Plant response rating (0 = no effect, 100 = complete control), Cocklebur",cocklebur,0
same,"Plant response rating, Cocklebur",cocklebur; [8],0
same,"Plant response rating, Cocklebur",cocklebur; [9],0
same,Cocklebur plant response rating,cocklebur,0
same,"Plant response rating (0 = no effect, 100 = complete control), Corn",corn,0
same,"Plant response rating, Corn",corn; [8],0
same,"Plant response rating, Corn",corn; [9],10
same,Corn plant response rating,corn,20
same,"Plant response rating (0 = no effect, 100 = complete control), Cupgrass, Woolly",woolly cupgrass,0
same,"Plant response rating, Cupgrass, Woolly",woolly cupgrass; [8],0
same,"Plant response rating, Cupgrass, Woolly",woolly cupgrass; [9],10
same,"Cupgrass, Woolly plant response rating",woolly cupgrass,10
same,"Plant response rating (0 = no effect, 100 = complete control), Foxtail, Giant",giant foxtail,0
same,"Plant response rating, Foxtail, Giant",giant foxtail; [8],0
same,"Plant response rating, Foxtail, Giant",giant foxtail; [9],20
same,"Foxtail, Giant plant response rating",giant foxtail,60
same,"Plant response rating (0 = no effect, 100 = complete control), Goosegrass",goosegrass,0
same,"Plant response rating, Goosegrass",goosegrass,30
same,Goosegrass plant response rating,goosegrass,80
same,"Plant response rating (0 = no effect, 100 = complete control), Kochia",kochia,10
same,"Plant response rating, Kochia",kochia,70
same,Kochia plant response rating,kochia,90
same,"Plant response rating (0 = no effect, 100 = complete control), Morningglory",morningglory,0
same,"Plant response rating, Morningglory",morningglory,0
same,Morningglory plant response rating,morningglory,10
same,"Plant response rating (0 = no effect, 100 = complete control), Nutsedge, Yellow",yellow nutsedge,0
same,"Plant response rating, Nutsedge, Yellow",yellow nutsedge,0
same,"Nutsedge, Yellow plant response rating",yellow nutsedge,0
same,"Plant response rating (0 = no effect, 100 = complete control), Soybean",soybean,0
same,"Plant response rating, Soybean",soybean,0
same,Soybean plant response rating,soybean,20
same,"Plant response rating, Velvetleaf",velvetleaf [2],0
same,Velvetleaf plant response rating,velvetleaf [2],60
same,Barnyardgrass plant response rating,barnyardgrass; [10],0
same,Barnyardgrass plant response rating,barnyardgrass; [11],0
same,Barnyardgrass plant response rating,barnyardgrass; [12],30
same,"Plant response rating, Barnyardgrass",barnyardgrass; [13],60
CCOC(=O)c1cccc(NC(=O)c2cc(C(C)(C)C)nn2CC)c1C [Compound 88],Pigweed plant response rating,redroot pigweed; [3],90
same,"Plant response rating, Pigweed",redroot pigweed; [4],100
same,Pigweed plant response rating,redroot pigweed; [5],90
same,Pigweed plant response rating,redroot pigweed; [6],100
same,Velvetleaf plant response rating,velvetleaf [1]; [3],40
same,"Plant response rating, Velvetleaf",velvetleaf [1]; [4],55
same,Velvetleaf plant response rating,velvetleaf [1]; [5],45
same,Velvetleaf plant response rating,velvetleaf [1]; [7],70
same,"Plant response rating (0 = no effect, 100 = complete control), Bermudagrass",bermudagrass,90
same,"Plant response rating, Bermudagrass",bermudagrass; [8],95
same,"Plant response rating, Bermudagrass",bermudagrass; [9],95
same,Bermudagrass plant response rating,bermudagrass,95
same,"Plant response rating (0 = no effect, 100 = complete control), Cocklebur",cocklebur,0
same,"Plant response rating, Cocklebur",cocklebur; [8],0
same,"Plant response rating, Cocklebur",cocklebur; [9],0
same,Cocklebur plant response rating,cocklebur,0
same,"Plant response rating (0 = no effect, 100 = complete control), Corn",corn,0
same,"Plant response rating, Corn",corn; [8],5
same,"Plant response rating, Corn",corn; [9],5
same,Corn plant response rating,corn,60
same,"Plant response rating (0 = no effect, 100 = complete control), Cupgrass, Woolly",woolly cupgrass,20
same,"Plant response rating, Cupgrass, Woolly",woolly cupgrass; [8],30
same,"Plant response rating, Cupgrass, Woolly",woolly cupgrass; [9],80
same,"Cupgrass, Woolly plant response rating",woolly cupgrass,90
same,"Plant response rating (0 = no effect, 100 = complete control), Foxtail, Giant",giant foxtail,0
same,"Plant response rating, Foxtail, Giant",giant foxtail; [8],50
same,"Plant response rating, Foxtail, Giant",giant foxtail; [9],85
same,"Foxtail, Giant plant response rating",giant foxtail,100
same,"Plant response rating (0 = no effect, 100 = complete control), Goosegrass",goosegrass,60
same,"Plant response rating, Goosegrass",goosegrass,90
same,Goosegrass plant response rating,goosegrass,100
same,"Plant response rating (0 = no effect, 100 = complete control), Kochia",kochia,0
same,"Plant response rating, Kochia",kochia,85
same,Kochia plant response rating,kochia,100
same,"Plant response rating (0 = no effect, 100 = complete control), Morningglory",morningglory,0
same,"Plant response rating, Morningglory",morningglory,0
same,Morningglory plant response rating,morningglory,20
same,"Plant response rating (0 = no effect, 100 = complete control), Nutsedge, Yellow",yellow nutsedge,0
same,"Plant response rating, Nutsedge, Yellow",yellow nutsedge,0
same,"Nutsedge, Yellow plant response rating",yellow nutsedge,0
same,"Plant response rating (0 = no effect, 100 = complete control), Soybean",soybean,0
same,"Plant response rating, Soybean",soybean,0
same,Soybean plant response rating,soybean,10
same,"Plant response rating, Velvetleaf",velvetleaf [2],0
same,Velvetleaf plant response rating,velvetleaf [2],50
same,Barnyardgrass plant response rating,barnyardgrass; [10],0
same,Barnyardgrass plant response rating,barnyardgrass; [11],0
same,Barnyardgrass plant response rating,barnyardgrass; [12],15
same,"Plant response rating, Barnyardgrass",barnyardgrass; [13],45
